According to US8163479B2, “Specific substrates for O6-alkylguanine-DNA alkyltransferase” (Ecole Polytechnique Federale de Lausanne, priority 2004, dated 2012):
Positions count from the first letter of the chain named. Residues, ends and D or L forms follow the SMILES beside them. *: point of attachment. X1 = CN(CCCC(=O)NCc1ccc(COc2nc(N)nc3[nH]c(CCCNC(=O)CN4C(=O)C[C@H](*)C4=O)nc23)cc1)C(=O)c1ccccc1-c1c2ccc(=N)c(S(=O)(=O)O)c-2oc2c(S(=O)(=O)O)c(N)ccc12

Tests used:
wild type hAGT = biological target: T1, wild type hAGT (Homo sapiens, UniProt P16455); details: known values; cited from earlier work
T1 sequence (P16455 1-207): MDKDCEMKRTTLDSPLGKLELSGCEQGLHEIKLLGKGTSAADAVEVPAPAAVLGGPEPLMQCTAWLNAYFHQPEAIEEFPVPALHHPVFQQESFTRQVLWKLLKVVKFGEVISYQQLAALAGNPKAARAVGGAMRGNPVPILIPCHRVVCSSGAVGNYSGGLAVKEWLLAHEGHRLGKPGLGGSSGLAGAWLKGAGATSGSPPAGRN

AGT21 (AGT mutant) = biological target: T2, AGT21 (AGT mutant) (Homo sapiens, UniProt P16455, A127T/C150N/C62A/K125A/N157G/Q115S/Q116H/R128A/R135S/S151I/S152N/S159E); assay: Fluorescence-appearance assay and reactivity comparisons; format: biochemical; details: for reaction rate relative to the compound unsubstituted at C^8/N^9 / reaction rate relative to the corresponding N^9-substituted compound: AGT21; for reaction rate relative to the compound unsubstituted at C^8/N^9: comparator BG-TMR, BG-Atto488 or BG-FL; for reaction rate relative to the corresponding N^9-substituted compound: comparator compound 35, 27 or 29
T2 construct: and truncation at 182 is prepared according to the same method; GST (N); made in house; host or cells: E. coli BL21
T2 sequence (P16455 1-182 C62A/Q115S/Q116H/K125A/A127T/R128A/R135S/C150N/S151I/S152N/N157G/S159E): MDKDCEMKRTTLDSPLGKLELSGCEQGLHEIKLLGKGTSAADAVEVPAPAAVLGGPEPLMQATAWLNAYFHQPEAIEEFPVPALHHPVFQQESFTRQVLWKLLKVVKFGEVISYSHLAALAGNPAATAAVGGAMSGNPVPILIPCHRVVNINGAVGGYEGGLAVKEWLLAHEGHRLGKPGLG
Description: A third AGT mutant (“AGT21”) related to AGTM and containing the mutations Cys62Ala, Gln115Ser, Gln116His, Lys125Ala, Ala127Thr, Arg128Ala, Arg135Ser, Cys150Asn, Ser15111e, Ser152Asn, Asn157Gly, Ser159G1u, and truncation at 182 is prepared according to the same method.
(§1) In a further assay, purified protein of AGT mutants AGTM and AGT21 (Example 47) at a protein concentration of 10 μM are incubated with 100 nM N-[4-(2-Amino-9-(3-QSY9-aminopropyl)-purin-6-yloxymethyl)-benzyl]-tetramethylrhodamine-5(6)-carboxamide (35, N^9-QSY9-BG-TMR, Example 19) in a buffer containing 100 mM NaCl, 50 mM Tris, pH 8.0, 0.1% Tween, 1 mM DTT, at room temperature. The fluorescence intensity (531 nm excitation/595 nm emission) is followed using a Victor2 microplate reader (Perkin Elmer).
(§2) Further reactivity comparisons gave the following results: […]

AGTM (AGT mutant) = biological target: T3, AGTM (AGT mutant) (Homo sapiens, UniProt P16455, A127T/C150N/C62A/G131K/G132T/K125A/M134L/N157G/Q115S/Q116H/R128A/R135S/S151I/S152N/S159E); assay: as above; format: biochemical; details: for reaction rate relative to the compound unsubstituted at C^8/N^9 / reaction rate relative to the corresponding N^9-substituted compound: AGTM; for reaction rate relative to the compound unsubstituted at C^8/N^9: comparator BG-TMR, BG-Atto488 or BG-FL; for reaction rate relative to the corresponding N^9-substituted compound: comparator compound 35, 27 or 29
T3 construct: a truncation after codon 182 into the mutant AGT gene; GST (N); made in house; host or cells: E. coli BL21
T3 sequence (P16455 1-182 C62A/Q115S/Q116H/K125A/A127T/R128A/G131K/G132T/M134L/R135S/C150N/S151I/S152N/N157G/S159E): T2 sequence (P16455 1-182 C62A/Q115S/Q116H/K125A/A127T/R128A/R135S/C150N/S151I/S152N/N157G/S159E) with G131K, G132T, M134L
Excerpt: A second AGT mutant (“AGTM”) containing the mutations Cys62Ala, Gln115Ser, Gln116His, Lys125Ala, Ala127Thr, Arg128Ala, Gly131Lys, Gly132Thr, Met134Leu, Arg135Ser, Cys150Asn, Ser15111e, Ser152Asn, Asn157Gly, Ser159G1u, and truncation at 182 is derived from the mentioned above AGT mutant by subsequent introduction of further mutations and a truncation after codon 182 into the mutant AGT gene. Subsequent PCR amplifications gives rise to the further mutated gene that is subcloned into pGEX2T as described for the first mutant. The GST-fusion protein is expressed and purified as well.
as §1, with “The fluorescence intensity (531 nm excitation/595 nm emission) is followed using a Victor2 microplate reader (Perkin Elmer).” left out
as §2

[1] = biological target: T4, AGT26-CaaX fusion protein in CHO cells deficient in endogenous wildtype AGT (Homo sapiens, UniProt P16455, A127T/C150S/C62A/G131K/G132T/K125A/M134L/N157G/R128A/R135S/S159E); format: cell-based
T4 construct: and truncation at 182 is also prepared according to the same method; expressed in transfected cells
T4 sequence (P16455 1-182 C62A/K125A/A127T/R128A/G131K/G132T/M134L/R135S/C150S/N157G/S159E): T2 sequence (P16455 1-182 C62A/Q115S/Q116H/K125A/A127T/R128A/R135S/C150N/S151I/S152N/N157G/S159E) with S115Q, H116Q, G131K, G132T, M134L, N150S, I151S, N152S
Description: A fourth AGT mutant (“AGT26”) related to AGTM and containing the mutations Cys62Ala, Lys125Ala, Ala127Thr, Arg128Ala, Gly131Lys, Gly132Thr, Met134Leu, Arg135Ser, Cys150Ser, Asn157Gly, Ser159G1u, and truncation at 182 is also prepared according to the same method.
A vector for a fusion of AGT26 and the CaaX-farnesylation signal is transfected into CHO cells deficient in endogenous wildtype AGT. Stable transfectants are selected under geneticine treatment. For that purpose the gene of AGT26 is cloned into pCMV-Script (Stratagene) followed on its C-terminus by the CaaX-box sequence encoded in the pECP-F (Clontech). The final protein sequence (position 690-1271) yields a single polypeptide with 194 amino acids. […] All imaging is done with an inverted Zeiss fluorescence microscope Axiovert 40 CFL with filter sets for tetramethylrhodamine and for fluorescein.

[2] = fluorescence 490 nm excitation / 535 nm emission
[3] = 10 μM protein, 100 nM substrate, over 1 hour at 25° C.

Molecule	reaction rate relative to the compound unsubstituted at C^8/N^9 (AGT21 (AGT mutant))	reaction rate relative to the corresponding N^9-substituted compound (AGT21 (AGT mutant))	reaction rate relative to the compound unsubstituted at C^8/N^9 (AGTM (AGT mutant))	reaction rate relative to the corresponding N^9-substituted compound (AGTM (AGT mutant))	also measured
Nc1nc(OCc2ccccc2)c2ncn(C3C[C@H](O)[C@@H](CO)O3)c2n1 (stereo partly shown) [N^9-desoxyribosyl-O^6-benzylguanine]					rate constant of the reaction with wild type hAGT (wild type hAGT): 340 s^−1M^−1
CN(CCCC(=O)NCc1ccc(COc2nc(N)nc3[nH]c(CCCNC(=O)c4ccc(/N=N/c5ccc(N(C)C)cc5)cc4)nc23)cc1)C(=O)c1ccccc1-c1c2ccc(=N)c(S(=O)(=O)O)c-2oc2c(S(=O)(=O)O)c(N)ccc12 [compound 45, N-[4-(2-Amino-8-(3-(4-[4-dimethylamino-phenyl]-azo-benzoyl)-aminopropyl)-9H-purin-6-yloxymethyl)-benzyl]-ATTO488-amide]	two times faster	at least four times faster	three times faster	at least fifteen times faster	increase in reactivity compared to BG-Atto488 (AGT21 (AGT mutant); [2]): twofold; increased reactivity compared to BG-Atto488 (AGTM (AGT mutant); [2]): 3 fold
CN(CCCC(=O)NCc1ccc(COc2nc(N)nc3[nH]c(CCCNC(=O)CN4C(=O)C[C@H](SC[C@H](NC(=O)[C@H](CCCNC(=N)N)NC(=O)[C@H](CCCNC(=N)N)NC(=O)[C@H](CCCNC(=N)N)NC(=O)[C@H](CCCNC(=N)N)NC(=O)[C@H](CCCNC(=N)N)NC(=O)[C@H](CCCNC(=N)N)NC(=O)[C@H](CCCNC(=N)N)NC(=O)[C@H](CCCNC(=N)N)NC(=O)[C@H](CCCNC(=N)N)NC(=O)[C@@H](N)Cc5ccc(O)cc5)C(=O)O)C4=O)nc23)cc1)C(=O)c1ccccc1-c1c2ccc(=N)c(S(=O)(=O)O)c-2oc2c(S(=O)(=O)O)c(N)ccc12 [compound 60, Conjugate O^6-ATT0488-C^8-TyrArg9Cys] (H-YRRRRRRRRRC(X1)-OH; N-terminus and C-terminus assumed)					cell membrane permeability [1]: increased permeability
N-[4-(2-Amino-8-(3-(4-[4-dimethylamino-phenyl]-azo-benzoyl)-amino-propyl)-9H-purin-6-yloxymethyl)-benzyl]-fluoresceine-5(6)-carboxamide [compound 44]	two times faster	at least four times faster	two times faster	at least ten times faster	
N-[4-(2-Amino-8-(3-QSY9-aminopropyl)-9H-purin-6-yloxymethyl)-benzyl]-tetramethylrhodamine-5(6)-carboxamide [compound 48]	two times faster	at least four times faster	two times faster	at least ten times faster	
N-[4-(2-Amino-9-(3-QSY9-aminopropyl)-purin-6-yloxymethyl)-benzyl]-tetramethylrhodamine-5(6)-carboxamide [compound 35]					increase of tetramethylrhodamine fluorescence (AGT21 (AGT mutant); [3]): about 80%; increase of tetramethylrhodamine fluorescence (AGTM (AGT mutant); [3]): less than five percent
O^6-tetramethylrhodamine-benzylguanine [BG-TMR, reference compound]					labeling of cells (fluorescence microscopy) ([1]; 5 μM, 30 min, CHO cells with AGT26-CaaX): clear signal at the cell membrane
